According to paper PMC5357639 (Frontiers in Chemistry, 2017):
≈ marks a conversion by molar mass, not a printed value. Entries after “also recorded” stand apart in the source; their conditions may differ. Where two headings read alike, the source gives them in different places. Where a SMILES comes first, the peptide text is derived from it. [ ]: non-standard residue; d: D form. The star is where a group is joined. Orn(α-tetramethylguanidino) = CN(C)C(=N[C@@H](CCCN)C(=O)*)N(C)C; Orn = NCCC[C@H](N)C(=O)O

Tests used:
[1] = test system: E. coli ATCC 25922; conditions: cited from earlier work
Description: (§1) Antimicrobial peptides (AMPs) are considered as promising alternatives to common antibiotics that threateningly lose their therapeutic potentials against multidrug-resistant pathogens (Fox, [2013]; Wang et al., [2015]). In contrast to approved therapeutic peptide hormones, antimicrobial peptides have to be administered at much higher doses, which may amplify general drawbacks of peptide therapeutics. For example, the diabetes peptide drugs exenatide and pramlintide are given at daily doses of 20 μg (Byetta®; ~0.5 μg/kg) and 120 μg (Symlin®; ~1.5 μg/kg; Heine et al., [2005]; Hay et al., [2015]) ... || Apidaecin analogs Api88 and Api137 are similarly active against Gram-negative bacteria with a tendency of higher activity of Api88 against K. pneumoniae (Czihal et al., [2012]; Berthold et al., [2013]). However, Api88 carries a C-terminal amide that is responsible for its very fast proteolytic cleavage in serum, the supernatant obtained after complete coagulation and centrifugation of blood. The in vitro serum stability assay, which is an important in vitro criterion to select therapeutic peptides for systemic applications, yielded very short half-life times of 5 min for Api88, which indicate ...

[2] = in vitro; type: in vitro ADME, CD-1 mice; conditions: female, CD-1, mouse, cerebrospinal or other body fluid
Method: Peritoneal lavage (1.5–2 mL) were collected from three euthanized female CD-1 mice (14 weeks, 32–33 g) after injecting sterile PBS intraperitoneal (4 mL). Peptides were incubated with aliquots (95 μL) of fresh lavage (75 μg/mL, 37°C, 750 rpm). After 0, 30, and 60 min trichloroacetic acid (25 μL, 15% w/v) was added to the samples to precipitate proteins, incubated on ice (10 min), and centrifuged (5 min, 12.400 × g). Supernatants were neutralized with sodium hydroxide (1 mol/L) and analyzed by RP-HPLC using a Poroshell 120 SB-C18-column (2.1 mm internal diameter, 100 mm length, 2.7 μm particle size, 12 nm pore size, Agilent Technologies Inc., Santa Clara, CA, USA) at 60°C and an aqueous acetonitrile gradient containing trifluoroacetic acid (0.1%, v/v). Absorbance was recorded at a wavelength of 214 nm.

[3] = test system: E. coli ATCC 25922; conditions: same infection model; ref Schmidt et al., 2016; cited from earlier work
Description: as §1, with “[…] Api137 appeared more efficient in this septicemia model due to” for “For example,”, “better scores obtained” for “diabetes peptide drugs exenatide and pramlintide are given”, “at” for “at daily doses of 20 μg (Byetta®; ~0.5 μg/kg) and 120 μg (Symlin®; ~1.5 μg/kg; Heine et al., [2005]; Hay et al., [2015])”

[4] = mouse, in vivo, ip; cited from earlier work
Description: Apidaecin analogs Api88 and Api137 are similarly active against Gram-negative bacteria with a tendency of higher activity of Api88 against K. pneumoniae (Czihal et al., [2012]; Berthold et al., [2013]). However, Api88 carries a C-terminal amide that is responsible for its very fast proteolytic cleavage in serum, the supernatant obtained after complete coagulation and centrifugation of blood. The in vitro serum stability assay, which is an important in vitro criterion to select therapeutic peptides for systemic applications, yielded very short half-life times of 5 min for Api88, which indicate ...

[5] = mouse, in vivo, ip, 5 mg/kg; cited from earlier work
Description: The recovery rates obtained from the spiked samples, were used to calculate the total amounts of intact peptides in blood, liver, and kidneys after intraperitoneal administration (Figures 6B–E, Tables S10, S11). The relative recovery in the studied organs and blood was only around 1.5 ± 0.6–2.1 ± 0.7% of the injected peptide amounts. Considering the mean weight of 29 g per mouse in this study and the weights of blood, liver, two kidneys, and brain with 2.2, 1.5, 0.5, and 0.5 g, respectively (~16% of the total weight), around 12% of the injected peptide quantities were detected in the samples c ...

[6] = target: 70S ribosomes; conditions: fluorescence polarization assay; ref Krizsan et al., 2014; cited from earlier work
Description: Antimicrobial peptides (AMPs) are considered as promising alternatives to common antibiotics that threateningly lose their therapeutic potentials against multidrug-resistant pathogens (Fox, [2013]; Wang et al., [2015]). In contrast to approved therapeutic peptide hormones, antimicrobial peptides have to be administered at much higher doses, which may amplify general drawbacks of peptide therapeutics. For example, the diabetes peptide drugs exenatide and pramlintide are given at daily doses of 20 μg (Byetta®; ~0.5 μg/kg) and 120 μg (Symlin®; ~1.5 μg/kg; Heine et al., [2005]; Hay et al., [2015]) ...

[7] = cited from earlier work
Description: Proline-rich antimicrobial peptides (PrAMPs) represent promising alternative therapeutic options for the treatment of multidrug-resistant bacterial infections. PrAMPs are predominantly active against Gram-negative bacteria by inhibiting protein expression via at least two different modes of action, i.e., blocking the ribosomal exit tunnel of 70S ribosomes (oncocin-type binding) or inhibiting the assembly of the 50S ribosomal subunit (apidaecin-type binding). The in vivo efficacy and favorable biodistribution of oncocins confirmed the therapeutic potential of short PrAMPs for the first time, wh ... || Antimicrobial peptides (AMPs) are considered as promising alternatives to common antibiotics that threateningly lose their therapeutic potentials against multidrug-resistant pathogens (Fox, [2013]; Wang et al., [2015]). In contrast to approved therapeutic peptide hormones, antimicrobial peptides have to be administered at much higher doses, which may amplify general drawbacks of peptide therapeutics. […]

[8] = mouse serum in vitro; conditions: cited from earlier work
[9] = plasma after intravenous administration; conditions: CD-1 mice, up to 60 min
[10] = liver homogenates after intraperitoneal administration; conditions: NMRI mice, up to 90 min
[11] = Lithium-heparin plasma after intraperitoneal administration; conditions: NMRI mice, up to 90 min
[12] = fresh peritoneal lavage (PBS injected intraperitoneal), ex vivo; conditions: CD-1 mice, 37°C, up to 60 min
[13] = metabolites, in vitro, no method in this paper, reference not given
[14] = E. coli ATCC 25922, ref Knappe et al., 2016c

**Q.** For CC[C@H](C)[C@H](NC(=O)[C@H](Cc1ccc(O)cc1)NC(=O)[C@@H](NC(=O)[C@@H]1CCCN1C(=O)[C@H](CCCNC(=N)N)NC(=O)[C@H](CC(N)=O)NC(=O)[C@H](CC(N)=O)NC(=O)[C@H](CCCN)N=C(N(C)C)N(C)C)C(C)C)C(=O)N1CCC[C@H]1C(=O)N[C@@H](CCCNC(=N)N)C(=O)N1CCC[C@H]1C(=O)N[C@@H](CCCNC(=N)N)C(=O)N1CCC[C@H]1C(=O)N1CCC[C@H]1C(=O)N[C@@H](Cc1c[nH]cn1)C(=O)N1CCC[C@H]1C(=O)O [Api1-16] ({Orn(α-tetramethylguanidino)}-NNRPVYIPRPRPPHP-OH), which MIC [1, 13] is on record?
**A.** > 128 µg/mL

**Q.** For CC[C@H](C)[C@H](NC(=O)[C@H](Cc1ccc(O)cc1)NC(=O)[C@@H](NC(=O)[C@@H]1CCCN1C(=O)[C@H](CCCNC(=N)N)NC(=O)[C@H](CC(N)=O)NC(=O)[C@H](CC(N)=O)NC(=O)[C@H](CCCN)N=C(N(C)C)N(C)C)C(C)C)C(=O)N1CCC[C@H]1C(=O)N[C@@H](CCCNC(=N)N)C(=O)N1CCC[C@H]1C(=O)N[C@@H](CCCNC(=N)N)C(=O)N1CCC[C@H]1C(=O)N1CCC[C@H]1C(=O)N[C@@H](Cc1c[nH]cn1)C(=O)N1CCC[C@H]1C(=O)N[C@@H](CCCNC(=N)N)C(=O)O [Api1-17] ({Orn(α-tetramethylguanidino)}-NNRPVYIPRPRPPHPR-OH), which MIC [1, 13] is on record?
**A.** 64 µg/mL

**Q.** For CC[C@H](C)[C@H](NC(=O)[C@H](CCCN)NC(=O)[C@H](CCCNC(=N)N)NC(=O)[C@@H]1CCCN1C(=O)[C@@H]1CCCN1C(=O)[C@H](CCCNC(=N)N)NC(=O)[C@@H]1CCCN1C(=O)[C@H](CCCNC(=N)N)NC(=O)[C@@H]1CCCN1C(=O)[C@H](CC(C)C)NC(=O)[C@H](Cc1ccc(O)cc1)NC(=O)[C@@H]1CCCN1C(=O)[C@@H]1CCCN1C(=O)[C@H](CCCCN)NC(=O)[C@H](CC(=O)O)NC(=O)[C@@H](N)C(C)C)C(=O)N[C@@H](Cc1ccc(O)cc1)C(=O)N[C@@H](CC(N)=O)C(=O)N[C@@H](CCCN)C(N)=O [Onc72, reference compound] (H-VDKPPYLPRPRPPR[Orn]IYN[Orn]-NH2; N-terminus and C-terminus assumed), which remaining at 1 h, 75 μg/mL [2] is on record?
**A.** > 89%

**Q.** And the “Dose rescuing all animals” value [3]?
**A.** 5 mg/kg

**Q.** What about the “Maximum plasma level reported for oncocins, compared with lower dose groups” value [4] of the same molecule?
**A.** 6 µg/mL

**Q.** What about the “Plasma level reported for oncocin, compared with high dose groups” value [4] of the same molecule?
**A.** 18000 ng/mL

**Q.** What about the “Recovery rate of injected peptide” value [5] of the same molecule?
**A.** 47%

**Q.** What about the Kd [6] of the same molecule?
**A.** 450 nM

**Q.** What about the MIC [1, 14] of the same molecule?
**A.** 16 µg/mL (≈ 6.94 µM)

**Q.** And the maximum plasma levels relative to Api88 and Api137?
**A.** < 10 fold

**Q.** What does the source list for CC[C@H](C)[C@H](NC(=O)[C@@H](CCCNC(=N)N)NC(=O)[C@H](CCCNC(=N)N)NC(=O)[C@@H]1CCCN1C(=O)[C@@H]1CCCN1C(=O)[C@H](CCCNC(=N)N)NC(=O)[C@@H]1CCCN1C(=O)[C@H](CCCNC(=N)N)NC(=O)[C@@H]1CCCN1C(=O)[C@H](CC(C)C)NC(=O)[C@H](Cc1ccc(O)cc1)NC(=O)[C@@H]1CCCN1C(=O)[C@@H]1CCCN1C(=O)[C@H](CCCCN)NC(=O)[C@H](CC(=O)O)NC(=O)[C@@H](N)C(C)C)C(=O)N[C@@H](Cc1ccc(O)cc1)C(=O)N[C@@H](CC(N)=O)C(=O)N[C@H](CCCNC(=N)N)C(N)=O [Onc112, reference compound] (H-VDKPPYLPRPRPPR[dR]IYN[dR]-NH2; N-terminus and C-terminus assumed)?
**A.** remaining at 1 h, 75 μg/mL [2]: > 89%; Dose rescuing all animals [3]: 2.5 mg/kg; Maximum plasma level reported for oncocins, compared with lower dose groups [4]: 8 µg/mL; Recovery rate of injected peptide [5]: 32%; Serum half-life time [7]: exceeded 8 h; Kd [6]: 90 nM; MIC [1, 14]: 4 µg/mL (≈ 1.67 µM); maximum plasma levels relative to Api88 and Api137: < 10 fold

**Q.** With gu-ONNRPVYIPRPRPPHPRL-NH2 as the molecule, how does the fragment found [8] read?
**A.** Api1-17, major; also recorded: Api1-16, major

**Q.** What about the fragment found [9] of the same molecule?
**A.** Api1-17, major, 5 min; also recorded: Api1-16, major, 5 min

**Q.** And the fragment found [10]?
**A.** Api1-17, major; also recorded: Api1-16, major

**Q.** What about the fragment found [11] of the same molecule?
**A.** Api1-16, major, 10 min; also recorded: Api2-16; also recorded: Api7-18; also recorded: Api3-18; also recorded: Api7-12; also recorded: Api1-6; also recorded: Api1-17, major, 10 min

**Q.** And the fragment found [12]?
**A.** Api1-17, major, 30 min

**Q.** For gu-ONNRPVYIPRPRPPHPRL-OH, which fragment found [8] is on record?
**A.** Api1-17, major; also recorded: Api1-16, major

**Q.** What about the fragment found [10] of the same molecule?
**A.** Api1-17, major; also recorded: Api1-16, major

**Q.** And the fragment found [11]?
**A.** Api1-17, major, 10 min; also recorded: Api1-16, major, 10 min; also recorded: Api7-12, minor; also recorded: Api2-16, minor; also recorded: Api2-18, minor

**Q.** What about the fragment found [12] of the same molecule?
**A.** Api1-17, major, 30 min
